Test results reported in article PMC5623949, “Exploiting the 2-Amino-1,3,4-thiadiazole Scaffold To Inhibit Trypanosoma brucei Pteridine Reductase in Support of Early-Stage Drug Discovery” (ACS Omega, 2017).
Read-outs that look alike come from different tables or passages of the source.

Experiments:
CYP2C9 = CYP2C9 (Homo sapiens, UniProt P11712); assay: in vitro; parameters: cytochrome P450 isoform inhibition liability assay
Description: (§1) Independent of the effect of any antiparasitic potential of compounds, they were evaluated using a panel of early-toxicity assays comprising cytotoxicity (A549, human lung adenocarcinoma epithelial cell line and WI-38, human lung fibroblasts), mitochondrial toxicity (786-O, human renal carcinoma cell line), hERG inhibition,[31] cytochrome P450 inhibition (CYP1A2, CYP2C9, CYP2C19, CYP2D6, and CYP3A4),[31] and Aurora B kinase inhibition. […] For the two compounds active against TbPTR1 (4m and 4o), IC50 against hERG, cytochrome P450, and mitochondrial toxicity were determined (reported in Supporting Information). We observed that the dose of compounds 4m, 4o, 4c, and 3k was 4 μM in the potentiation assays. […] In the case of hERG, CYP2D6, CYP2A9, CYP2C19, and mitochondrial toxicity, there is a selectivity index of around 3–4 fold, thus showing an acceptable profile.  Figure 10 Summary heat map of the in vitro assays to determine possible liability issues for all synthesized compounds. Assays were performed to assess inhibition of hERG and five CYP isoforms (1A2, 2C9, 2C19, 2D6, and 3A4), growth inhibition of A549 and W1-38 cell lines, and mitochondrial toxicity at 10 μM. The hDHFR inhibition was determined at 100 μM. The data, expressed as percentage values, were organized by adopting a color code for rapid and intuitive visualization. The ideal compound should have all tiles blue, indicating a safe toxicological profile for progressing into the development pipeline. The cells are colored from blue (100% of cell growth at the tested concentration) to red (0% of cell growth at the tested concentration) for A549 and W1-38 and from blue (0% of inhibitory activity at the tested concentration) to red (100% of inhibitory activity at the tested concentration) for CYP isoforms, hERG, hDHFR, and mitochondrial toxicity.

CYP2C19 = CYP2C19 (Homo sapiens, UniProt P33261); assay: in vitro; parameters: cytochrome P450 isoform inhibition liability assay
Description: as §1

CYP1A2 = molecular target: T1, CYP1A2 (Homo sapiens, UniProt P05177); assay: in vitro; parameters: cytochrome P450 isoform inhibition liability assay
T1 sequence (P05177 1-516): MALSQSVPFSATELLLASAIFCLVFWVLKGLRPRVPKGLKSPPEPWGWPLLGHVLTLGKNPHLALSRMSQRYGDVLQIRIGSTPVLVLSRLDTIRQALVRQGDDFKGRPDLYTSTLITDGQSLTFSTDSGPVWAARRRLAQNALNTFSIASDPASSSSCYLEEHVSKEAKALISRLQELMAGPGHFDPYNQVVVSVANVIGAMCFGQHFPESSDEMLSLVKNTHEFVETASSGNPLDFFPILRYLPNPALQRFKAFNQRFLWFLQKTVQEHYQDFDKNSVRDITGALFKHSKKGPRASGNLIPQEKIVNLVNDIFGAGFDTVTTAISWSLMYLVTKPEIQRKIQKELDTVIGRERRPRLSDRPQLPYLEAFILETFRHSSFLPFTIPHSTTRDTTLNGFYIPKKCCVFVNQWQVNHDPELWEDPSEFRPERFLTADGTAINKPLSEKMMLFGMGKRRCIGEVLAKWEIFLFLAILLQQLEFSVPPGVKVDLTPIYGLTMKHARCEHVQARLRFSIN
Description: as §1

CYP2D6 = CYP2D6 (Homo sapiens, UniProt P10635); assay: in vitro; parameters: cytochrome P450 isoform inhibition liability assay
Description: as §1

CYP3A4 = CYP3A4 (Homo sapiens, UniProt P08684); assay: in vitro; parameters: cytochrome P450 isoform inhibition liability assay
Description: as §1

in vitro [1] = assay: in vitro; parameters: cytotoxicity, per cent cell growth of A549 cells; settings: human, a549 cells; read-out: % cell growth A549 at 10uM
Description: as §1

786-O = assay: cells; parameters: mitochondrial toxicity in 786-O renal carcinoma cells; settings: Homo sapiens, 786-0; mitochondrial toxicity
Description: as §1

hERG = molecular target: T2, hERG (Homo sapiens, UniProt Q12809); parameters: hERG inhibition liability assay
T2 construct: gene KCNH2
Description: as §1

TbPTR1 = molecular target: T3, TbPTR1 (Trypanosoma brucei brucei, UniProt O76290); assay: biochemical; settings: for inhibition at 50 µM: read-out: % Inhibition TbPTR1 at 50 μM
T3 construct: made in house
T3 sequence (O76290 1-268): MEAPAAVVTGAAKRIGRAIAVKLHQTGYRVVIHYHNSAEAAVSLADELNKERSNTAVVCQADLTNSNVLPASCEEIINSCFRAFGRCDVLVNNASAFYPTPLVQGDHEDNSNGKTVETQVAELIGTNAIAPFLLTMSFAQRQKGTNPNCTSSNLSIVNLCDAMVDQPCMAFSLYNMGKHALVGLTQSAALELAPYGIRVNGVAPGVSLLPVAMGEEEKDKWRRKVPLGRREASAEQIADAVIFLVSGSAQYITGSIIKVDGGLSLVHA

in vitro [2] = assay: in vitro; parameters: cytotoxicity, per cent cell growth of WI-38 fibroblasts; settings: human, wi-38 cells; read-out: % cell growth W1-38 at 10uM
Description: as §1

[3] = tested on: T. b. brucei Lister 427 bloodstream forms; assay: In vitro activity against T. brucei (HTS SYBR Green I growth inhibition assay); format: cell-based, Trypanosoma brucei brucei; settings: for inhibition at 50 µM / EC50: Trypanosoma brucei; for inhibition at 50 µM: read-out: % Inhibition T. brucei at 50 μM; for EC50: read-out: EC50 T. brucei
hDHFR = molecular target: T4, hDHFR (Homo sapiens, UniProt P00374); assay: biochemical; parameters: human DHFR enzyme inhibition
T4 construct: gene DHFR
T4 sequence (P00374 1-187): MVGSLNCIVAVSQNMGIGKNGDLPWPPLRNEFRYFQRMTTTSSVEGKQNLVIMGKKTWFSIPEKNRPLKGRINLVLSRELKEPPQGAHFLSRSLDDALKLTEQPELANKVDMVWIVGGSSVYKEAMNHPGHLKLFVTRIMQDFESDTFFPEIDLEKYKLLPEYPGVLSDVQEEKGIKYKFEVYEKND
Description: Figure 10 Summary heat map of the in vitro assays to determine possible liability issues for all synthesized compounds. Assays were performed to assess inhibition of hERG and five CYP isoforms (1A2, 2C9, 2C19, 2D6, and 3A4), growth inhibition of A549 and W1-38 cell lines, and mitochondrial toxicity at 10 μM. The hDHFR inhibition was determined at 100 μM. The data, expressed as percentage values, were organized by adopting a color code for rapid and intuitive visualization. The ideal compound should have all tiles blue, indicating a safe toxicological profile for progressing into the development pipeline. The cells are colored from blue (100% of cell growth at the tested concentration) to red (0% of cell growth at the tested concentration) for A549 and W1-38 and from blue (0% of inhibitory activity at the tested concentration) to red (100% of inhibitory activity at the tested concentration) for CYP isoforms, hERG, hDHFR, and mitochondrial toxicity.

[4] = 50 μM, standard deviation within ±10% of the value
[5] = standard deviation within ±10% of the value

Sequence of CYP2C9 (P11712 whole entry, canonical isoform): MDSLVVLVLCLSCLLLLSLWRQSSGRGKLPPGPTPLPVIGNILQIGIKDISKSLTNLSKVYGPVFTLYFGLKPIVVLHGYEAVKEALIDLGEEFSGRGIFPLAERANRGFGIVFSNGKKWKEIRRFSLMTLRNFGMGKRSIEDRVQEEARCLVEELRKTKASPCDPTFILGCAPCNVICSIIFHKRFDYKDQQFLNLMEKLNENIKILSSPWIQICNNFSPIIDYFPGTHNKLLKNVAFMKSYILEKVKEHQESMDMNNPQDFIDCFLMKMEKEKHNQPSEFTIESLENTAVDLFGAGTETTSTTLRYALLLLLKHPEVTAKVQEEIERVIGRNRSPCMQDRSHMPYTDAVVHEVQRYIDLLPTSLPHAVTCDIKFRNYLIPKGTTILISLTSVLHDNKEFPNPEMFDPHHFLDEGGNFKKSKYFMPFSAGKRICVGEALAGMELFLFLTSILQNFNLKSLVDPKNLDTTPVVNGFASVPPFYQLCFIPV
Sequence of CYP2D6 (P10635 whole entry, canonical isoform): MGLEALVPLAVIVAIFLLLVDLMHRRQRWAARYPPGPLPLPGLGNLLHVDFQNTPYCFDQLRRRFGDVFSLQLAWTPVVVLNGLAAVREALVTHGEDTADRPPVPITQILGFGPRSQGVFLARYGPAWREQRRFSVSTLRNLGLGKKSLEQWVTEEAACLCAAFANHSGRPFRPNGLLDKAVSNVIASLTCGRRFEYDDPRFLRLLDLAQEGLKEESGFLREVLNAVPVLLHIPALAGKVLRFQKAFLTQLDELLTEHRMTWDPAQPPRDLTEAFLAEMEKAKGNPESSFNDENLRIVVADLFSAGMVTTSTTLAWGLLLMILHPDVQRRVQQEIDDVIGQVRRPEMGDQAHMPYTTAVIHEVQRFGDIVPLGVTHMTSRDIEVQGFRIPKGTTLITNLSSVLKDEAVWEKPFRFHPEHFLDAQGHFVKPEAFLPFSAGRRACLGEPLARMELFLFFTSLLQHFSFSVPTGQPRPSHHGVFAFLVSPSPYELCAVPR
T2 sequence (Q12809 whole entry): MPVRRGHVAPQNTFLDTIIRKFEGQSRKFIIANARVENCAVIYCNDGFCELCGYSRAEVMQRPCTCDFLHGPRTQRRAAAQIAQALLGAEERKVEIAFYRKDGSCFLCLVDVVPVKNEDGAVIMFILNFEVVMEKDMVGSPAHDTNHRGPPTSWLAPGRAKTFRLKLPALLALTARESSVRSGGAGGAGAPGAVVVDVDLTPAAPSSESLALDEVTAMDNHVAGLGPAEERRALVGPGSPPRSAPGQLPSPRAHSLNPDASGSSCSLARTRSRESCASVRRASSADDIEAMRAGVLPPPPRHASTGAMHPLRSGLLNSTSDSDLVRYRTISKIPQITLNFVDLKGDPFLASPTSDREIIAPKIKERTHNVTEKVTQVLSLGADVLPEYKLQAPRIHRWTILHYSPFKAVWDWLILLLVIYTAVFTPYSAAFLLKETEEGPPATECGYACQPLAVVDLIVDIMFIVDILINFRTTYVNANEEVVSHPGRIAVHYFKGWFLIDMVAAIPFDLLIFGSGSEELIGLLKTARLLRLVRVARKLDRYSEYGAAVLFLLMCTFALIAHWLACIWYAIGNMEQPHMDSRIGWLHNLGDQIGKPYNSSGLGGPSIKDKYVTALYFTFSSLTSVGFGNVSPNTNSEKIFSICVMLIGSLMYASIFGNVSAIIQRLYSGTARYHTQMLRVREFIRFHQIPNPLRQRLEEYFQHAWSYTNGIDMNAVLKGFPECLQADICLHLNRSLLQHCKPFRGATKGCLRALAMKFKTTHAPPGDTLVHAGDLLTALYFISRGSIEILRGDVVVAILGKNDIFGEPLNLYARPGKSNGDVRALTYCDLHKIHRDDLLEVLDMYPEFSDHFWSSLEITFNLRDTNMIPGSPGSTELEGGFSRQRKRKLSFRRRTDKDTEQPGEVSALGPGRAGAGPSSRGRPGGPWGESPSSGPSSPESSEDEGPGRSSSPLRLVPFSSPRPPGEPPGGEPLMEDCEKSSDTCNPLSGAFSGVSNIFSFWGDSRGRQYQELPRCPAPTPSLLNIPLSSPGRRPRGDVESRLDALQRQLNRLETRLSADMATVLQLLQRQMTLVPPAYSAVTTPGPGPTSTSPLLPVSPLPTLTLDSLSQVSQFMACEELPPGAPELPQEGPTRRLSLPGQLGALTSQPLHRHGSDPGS
Sequence of CYP3A4 (P08684 whole entry, canonical isoform): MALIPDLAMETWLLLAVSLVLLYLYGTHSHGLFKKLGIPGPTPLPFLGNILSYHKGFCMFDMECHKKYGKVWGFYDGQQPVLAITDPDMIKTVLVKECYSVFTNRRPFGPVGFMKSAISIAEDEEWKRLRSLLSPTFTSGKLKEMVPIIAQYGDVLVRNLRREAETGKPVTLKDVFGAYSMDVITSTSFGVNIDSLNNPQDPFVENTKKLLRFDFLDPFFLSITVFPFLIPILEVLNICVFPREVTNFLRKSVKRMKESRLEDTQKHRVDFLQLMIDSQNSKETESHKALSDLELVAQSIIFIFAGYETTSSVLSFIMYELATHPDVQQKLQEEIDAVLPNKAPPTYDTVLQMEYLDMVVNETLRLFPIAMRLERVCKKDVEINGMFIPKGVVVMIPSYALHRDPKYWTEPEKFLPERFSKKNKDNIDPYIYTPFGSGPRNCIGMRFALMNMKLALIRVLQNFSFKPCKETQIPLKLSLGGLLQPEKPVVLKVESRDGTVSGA
Sequence of CYP2C19 (P33261 whole entry, canonical isoform): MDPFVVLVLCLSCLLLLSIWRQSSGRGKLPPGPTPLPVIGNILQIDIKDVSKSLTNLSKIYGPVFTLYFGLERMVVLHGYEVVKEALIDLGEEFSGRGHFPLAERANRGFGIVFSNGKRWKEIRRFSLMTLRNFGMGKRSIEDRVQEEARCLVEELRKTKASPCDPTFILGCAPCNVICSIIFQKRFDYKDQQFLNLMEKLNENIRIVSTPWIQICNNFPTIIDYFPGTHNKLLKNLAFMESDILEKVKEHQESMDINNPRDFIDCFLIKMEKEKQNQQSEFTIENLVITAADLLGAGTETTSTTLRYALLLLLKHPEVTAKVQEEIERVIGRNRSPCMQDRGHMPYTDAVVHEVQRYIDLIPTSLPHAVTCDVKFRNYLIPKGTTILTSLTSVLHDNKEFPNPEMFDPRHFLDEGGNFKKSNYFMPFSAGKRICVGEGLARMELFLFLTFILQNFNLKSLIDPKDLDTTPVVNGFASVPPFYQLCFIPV

SMILES | inhibition at 10 µM (CYP2C9) | inhibition at 10 µM (CYP2C19) | inhibition at 10 µM (CYP1A2) | inhibition at 10 µM (CYP2D6) | inhibition at 10 µM (CYP3A4) | viability at 10 µM (in vitro [1]) | inhibition at 10 µM (786-O) | inhibition at 10 µM (hERG) | inhibition at 50 µM (TbPTR1; 50 μM compound) | viability at 10 µM (in vitro [2]) | inhibition at 50 µM [3, 4] | inhibition at 100 µM (hDHFR) | inhibition at 10 µM (hDHFR) | inhibition at 50 µM (TbPTR1) | inhibition at 50 µM [3] | IC50 (TbPTR1; dose-response 0.001-100 μM) | % Inhibition T. brucei at 50 μM [3, 4] | EC50 [3, 5]
COc1ccc(-c2nnc(N)s2)cc1OC [1c] | -25.9 ± 1.5% | -26.1 ± 22.5% | 14.1 ± 3.4% | -45.9 ± 3.1% | -7.1 ± 6% | 105 ± 5.3% | -7.3 ± 5.2% | 13.6 ± 4% | 9.4 ± 0.3% | 110 ± 33.5% | 64.3% | 42% |  |  |  |  |  | 
Nc1nnc(Cc2ccccc2)s1 [3b] | -20.4 ± 1.8% | -42.6 ± 5.5% | -10.2 ± 1.6% | -41.7 ± 3.9% | -23.7 ± 5.9% | 125 ± 4.8% | -7.4 ± 11.1% | 11.1 ± 5.2% | 8.1 ± 0.2% | 120 ± 1.7% | < 0% | 6% |  |  |  |  |  | 
Nc1nnc(N)s1 [4a] | 46 ± 1.7% | 62.3 ± 8.3% | 40.5 ± 3% | -15.9 ± 8.6% | 53.4 ± 4.4% | 113 ± 4.4% | 1.7 ± 6.6% | 4.7 ± 3.6% | 14.2 ± 0.8% | 81.3 ± 13.5% | < 0% | 36% |  |  |  |  |  | 
COc1ccc(-c2ccc(-c3nnc(N)s3)nc2)cc1 [1t] | 19.7 ± 8.9% | 17 ± 5.7% | 76.4 ± 1.2% | 8.9 ± 2.4% | 8.5 ± 3.3% | 60.7 ± 5.9% | 6.7 ± 17.3% | 59.5 ± 42.9% | 8.3 ± 1.8% | 107 ± 10.4% | 28.9% |  | 8% |  |  |  |  | 
CN(C)CCc1nnc(N)s1 [3i] | -13.5 ± 3.9% | -30.1 ± 15.1% | -3.2 ± 4.2% | -35.4 ± 5% | -14.3 ± 3.1% | 143 ± 11.8% | -12.4 ± 3.4% | 0.7 ± 2.8% |  | 114 ± 22.2% |  | 12% |  | 5.6 ± 0.6% | < 0% |  |  | 
COc1cccc(CNc2nnc(N)s2)c1 [4i] | 33.5 ± 1.7% | 45.9 ± 0.8% | 15.9 ± 1.1% | 105.2 ± 0.1% | 87.7 ± 0.4% | 107 ± 5.8% | -15.3 ± 24.3% | 108 ± 9.6% | 31 ± 1.3% | 129 ± 14.1% |  | 28% |  |  |  | 56 µM | 95.6% | 16 µM
Nc1nnc(N2CCC(Cc3ccccc3)CC2)s1 [4r, 5G(4GbenzylpiperidinG1Gyl)G1,3,4GthiadiazolG2Gamine] | 45.9 ± 3.3% | 89.4 ± 2% | 20 ± 1.2% | 82.7 ± 0.6% | 21.7 ± 4.3% | 111 ± 6.5% | -7.3 ± 10.5% | 46.5 ± 4.7% | 8.4 ± 0.3% | 92.7 ± 15.7% | 1.8% | 13% |  |  |  |  |  | 
COC(=O)C(Cc1ccccc1)Nc1nnc(N)s1 (stereo not drawn) [4p, Methyl 2G((5GaminoG1,3,4GthiadiazolG2Gyl)amino)G3Gphenylpropanoate] | -10.9 ± 3% | -27.4 ± 13.1% | -1.5 ± 4.3% | 47.4 ± 3.3% | -12.5 ± 6.8% | 126 ± 3.5% | 1.72 ± 5.2% | 28.7 ± 10.5% | 3.9 ± 0.3% | 114 ± 12.7% | 0.4% | 9% |  |  |  |  |  | 
Nc1nnc(-c2ccc(Cl)c(Cl)c2)s1 [1l] | 46.7 ± 1.5% | 64.9 ± 1.7% | 80.6 ± 1.6% | 52.7 ± 2.1% | 35.7 ± 7.9% | 107 ± 1.2% | 7.6 ± 8.3% | 91.7 ± 8.4% | 15.6 ± 0.7% | 77.8 ± 22.1% | 30% |  | 18% |  |  |  |  | 
Nc1nnc(-c2cccc(Br)c2)s1 [1i] | -47.7 ± 2% | -30.9 ± 4.3% | 47 ± 2% | -45.1 ± 6.2% | -14.1 ± 6% | 135 ± 4.6% | -3.6 ± 9.1% | 14.6 ± 4.2% | 34.2 ± 1.5% | 111 ± 12.3% | 1.8% | 19% |  |  |  |  |  | 
Nc1nnc(-c2ccc(OCc3ccc(Cl)c(Cl)c3)cc2)s1 [1r] | 31.3 ± 0.4% | 69.6 ± 5.2% | 24.7 ± 1.4% | 48 ± 0.9% | 14.9 ± 5.7% | 104 ± 6.6% | 4.7 ± 7.8% | 40.7 ± 7.5% | < 0% | 68.7 ± 17.9% | 58.4% | 17% |  |  |  |  |  | 
Nc1nnc(/C=C/c2ccccc2)s1 [3h] | 4.1 ± 5.9% | 7.2 ± 9.8% | 25.2 ± 1.1% | -22.1 ± 8% | 45.9 ± 5.5% | 138 ± 5.6% | -1.3 ± 6.6% | 58.7 ± 4.9% | 34.3 ± 1.2% | 111 ± 42% | 82.7% |  | 15% |  |  |  |  | 58 µM
